A word on the IC50: it is the midpoint of a concentration-inhibition curve.

Some results are limits rather than exact numbers.

In experiment [1] the test system is 501mel. The experiment can be described thus: MTT cytotoxicity assay. Format: cell-based, Human. Particulars: for IC50: Homo sapiens, 501mel, 72 h treatment, MTT. The source says:
(§1) Human cell lines were used throughout this program. SK-MEL-19 (melanoma BRAF^V600E, NRAS^WT), SK-MEL-28 (melanoma BRAF^V600E, NRAS^WT), SK-MEL-147 (melanoma BRAF^WT, NRAS^Q61R), MRC-5 (fibroblasts), and primary fibroblast (FDH) were kindly provided by Professor Glaucia Santelli (University of São Paulo, Brazil). MCF7 (breast adenocarcinoma, ATCC HTB-22), and HCT-116 (colorectal carcinoma, ATCC 247) cells were obtained from American Type Culture Collection (ATCC) and deposited in the Cell Bank of Rio de Janeiro, Brazil. WM293A (metastatic melanoma BRAF^V600D, NRAS^WT), 501mel (metastatic melanoma BRAF^V600E; NRAS^G12D), and MM200 (melanoma BRAF^V600E, NRAS^WT) were kindly provided by Professor Sharon Prince, University of Cape Town, South Africa. All human melanoma and breast cell lines were cultivated with Dulbecco’s Modified Eagle Medium: Nutrient Mixture F-12 (Thermo Fisher Scientific, San Jose, CA, USA). MM200 and HCT-116 were maintained with Roswell Park Memorial Institute (RPMI) medium (Thermo Fisher Scientific, San Jose, CA, USA). Unless stated otherwise, media was supplemented with 10% fetal bovine serum (FBS) and 1% penicillin-streptomycin (Thermo Fisher Scientific, San Jose, CA, USA). Cells were incubated with 5% CO2 at 37 °C. When required, cells were detached from flask using trypsin-EDTA 0.05% (Thermo Fisher Scientific, San Jose, CA, USA).
(§2) Cytotoxic activity was evaluated by the transformation of 3-(4,5-dimethylthiazol-2-yl)-2,5-diphenyltetrazolium bromide (MTT; Thermo Fisher Scientific, San Jose, CA, USA) into formazan by viable cells. Cells were plated in a 96-well plate (1 × 10^4 cells/well) and, 24 h later, exposed to serial dilutions of the test compounds (from 0.00032 to 5.0 µM) for 24, 48, and 72 h. For each analysis, negative controls received 0.5% DMSO and positive control was delivered by doxorubicin (DOX; 0.05 to 10.0 µM). At the end of the incubation periods, the medium was replaced with fresh medium containing 0.5 mg/mL of MTT and supernatant was removed 3 h later. The plates were dried at 50 °C for 30 min and formazan was solubilized in DMSO (150 µL/well) for the absorbance measure at 570 nm on a plate reader (Thermo Fisher Scientific, San Jose, CA, USA). IC50 values (half-maximal inhibitory concentration) along with 95% CI (confidence intervals) were calculated by non-linear regression using GraphPad Prism 8.0 software (GraphPad Software, Inc., San Diego, CA, USA).
(In general: Formazan colour is commonly taken as a measure of viable cells.)

Experiment [2] concerns FDH. Briefly: MTT cytotoxicity assay. Type of experiment: cell-based, Human. Particulars: Homo sapiens, Fibroblast, 72 h, FDH primary fibroblasts, 72 h treatment.
Source text: as §1, §2

Experiment [3] deals with HCT-116. Briefly: MTT cytotoxicity assay. Type of experiment: cell-based, Human. Particulars: for IC50: Homo sapiens, HCT-116, 72 h treatment, MTT.
Source text: as §1, §2

The subject of experiment [4] is MCF7. Briefly: MTT cytotoxicity assay. To be noted: for IC50: Homo sapiens, MCF7, 72 h treatment, MTT. Type of experiment: cell-based, Human.
Source text: as §1, §2

For experiment [5], the system named is MM200. Briefly: MTT cytotoxicity assay. Format: cell-based, Human. To be noted: for IC50: Homo sapiens, MM200, 72 h treatment, MTT.
Source text: as §1, §2

The test system of experiment [6] is SK-MEL-147. Briefly: MTT cytotoxicity assay. Format: cell-based, Human. Particulars: for IC50: Homo sapiens.
Source text: as §1, §2

Experiment [7] deals with SK-MEL-19. The experiment can be described thus: MTT cytotoxicity assay. Type of experiment: cell-based, Human. To be noted: for IC50: Homo sapiens, SK-MEL19, SK-MEL-19, 72 h treatment, MTT.
Source text: as §1, §2

For experiment [8], the system named is SK-MEL-28. The experiment can be described thus: MTT cytotoxicity assay. Particulars: for IC50: Homo sapiens. Type of experiment: cell-based, Human.
Source text: as §1, §2

The subject of experiment [9] is WM293A. The experiment can be described thus: MTT cytotoxicity assay. Type of experiment: cell-based, Human. To be noted: for IC50: Homo sapiens, WM293A, 72 h treatment, MTT.
Source text: as §1, §2

In experiment [10] the test system is melanoma cells. The experiment can be described thus: MTT cytotoxicity assay, melanoma panel. Particulars: SK-Mel cells versus non-tumor cell lines. Type of experiment: cell-based, Human.
Source text: as §1, §2

Experiment [11] relates to MRC-5. Briefly: MTT cytotoxicity assay. Particulars: Homo sapiens, MRC5, 72 h.
Setting [12] is: 501mel versus FDH, 72-h IC50 ratio.
Where [13] appears, read: 501mel versus MRC-5, 72-h IC50 ratio.
The mark [14] stands for this setting: HCT-116 versus FDH, 72-h IC50 ratio.
The mark [15] stands for this setting: HCT-116 versus MRC-5, 72-h IC50 ratio.
The mark [16] stands for this setting: MCF7 versus FDH, 72-h IC50 ratio.
The mark [17] stands for this setting: MCF7 versus MRC-5, 72-h IC50 ratio.
Setting [18] is: MM200 versus FDH, 72-h IC50 ratio.
Where [19] appears, read: MM200 versus MRC-5, 72-h IC50 ratio.
Setting [20] is: SK-MEL-147, 72 h, SK-MEL-147, 72 h treatment, MTT.
The mark [21] stands for this setting: SK-MEL-147 versus FDH, 72-h IC50 ratio.
[22] abbreviates: SK-MEL-147 versus MRC-5, 72-h IC50 ratio.
Setting [23] is: SK-MEL-19 versus FDH, 72-h IC50 ratio.
[24] abbreviates: SK-MEL-19 versus MRC-5, 72-h IC50 ratio.
Where [25] appears, read: SK-MEL-28, 72 h, SK-MEL-28, 72 h treatment, MTT.
Where [26] appears, read: SK-MEL-28 versus FDH, 72-h IC50 ratio.
Where [27] appears, read: SK-MEL-28 versus MRC-5, 72-h IC50 ratio.
[28] abbreviates: WM293A versus FDH, 72-h IC50 ratio.
Setting [29] is: WM293A versus MRC-5, 72-h IC50 ratio.
Setting [30] is: MRC-5 non-tumor fibroblasts, 72 h treatment, MTT.
[31] abbreviates: SK-MEL-147, SK-MEL-147, 24h treatment, 1h pre-treated with 30 nM bafilomycin A1.
The mark [32] stands for this setting: SK-MEL-147, SK-MEL-147, 24h treatment, 1h pre-treated with 20 µM Z-VAD-FMK.
The mark [33] stands for this setting: SK-MEL-147, SK-MEL-147, 24h treatment, no pre-treatment (Table S4).
[34] abbreviates: SK-MEL-28, SK-MEL-28, 24h treatment, 1h pre-treated with 30 nM bafilomycin A1.
[35] abbreviates: SK-MEL-28, SK-MEL-28, 24h treatment, 1h pre-treated with 20 µM Z-VAD-FMK.
The mark [36] stands for this setting: SK-MEL-28, SK-MEL-28, 24h treatment, no pre-treatment (Table S4).

For the compound `N[C@H]1CCN(C(=O)CCc2ccc3c(=O)c4sc5c(=O)c6ccccc6c(=O)c5c4c(=O)c3c2)C1` [SQ5], the “Selectivity Index (SI)” value in experiment [1] (setting [12]) is listed as 0.5; in [1] (setting [13]), 0.3; in experiment [3] (setting [14]) it was 4.2; in experiment [3] (setting [15]) it was 2.5; in [4] (setting [16]) it was 1.9; in experiment [4] (setting [17]), 1.1. Besides, the “Selectivity Index (SI)” value in experiment [5] (setting [18]) is reported as 3.1; in experiment [5] (setting [19]), 1.9; in experiment [6] (setting [21]), 13.3; in experiment [6] (setting [22]), 8.0; in experiment [7] (setting [23]) it was 23.3; in experiment [7] (setting [24]) it was 14.0. Further, the “Selectivity Index (SI)” value in experiment [8] (setting [26]) came out at 6.2; in experiment [8] (setting [27]) it was 3.7; in [9] (setting [28]) it was 0.6; in experiment [9] (setting [29]), 0.3. The IC50 turned out to be 1.71 µM in experiment [1]; 0.93 µM in [2]; 0.22 µM in [3]; 0.49 µM in experiment [4]; 0.3 µM in experiment [5] (72 h); 0.07 µM in experiment [6] (setting [20]). Moreover, the IC50 turned out to be 0.04 µM in [7], 0.15 µM in experiment [8] (setting [25]), 1.65 µM in experiment [9] and 0.56 µM in [11] (setting [30]). For the same compound, the “selectivity indices to SK-Mel cells in relation to non-tumor cell lines” value in experiment [10] is listed as “≥ twofold”.
`NCCCCCCNC(=O)CCc1ccc2c(=O)c3sc4c(=O)c5ccccc5c(=O)c4c3c(=O)c2c1` [SQ4]: the IC50 in [1] was greater than 5 µM; in [2], 1.01 µM; in [3] it was 1.02 µM; in [4], 1 µM; in experiment [5] (72 h), 1.16 µM; in [6] (setting [20]), 0.4 µM. Also, the IC50 in experiment [7] came out at 0.32 µM; in experiment [8] (setting [25]), 0.19 µM; in experiment [9] it was 1.75 µM; in experiment [11] (setting [30]) it was 2.45 µM. For the same compound, the “Selectivity Index (SI)” value was 1.0 in [3] (setting [14]); 2.4 in experiment [3] (setting [15]); 1.0 in experiment [4] (setting [16]); 2.5 in experiment [4] (setting [17]); 0.9 in experiment [5] (setting [18]); 2.1 in experiment [5] (setting [19]). Also, the “Selectivity Index (SI)” value amounted to 2.5 in experiment [6] (setting [21]); 6.1 in experiment [6] (setting [22]); 3.2 in experiment [7] (setting [23]); 7.7 in experiment [7] (setting [24]); 5.3 in experiment [8] (setting [26]); 12.9 in experiment [8] (setting [27]). The figures for the “Selectivity Index (SI)” value in experiment [9] (setting [28]) and in experiment [9] (setting [29]) were 0.6 and 1.4, respectively. Besides, the “selectivity indices to SK-Mel cells in relation to non-tumor cell lines” value in experiment [10] was “≥ twofold”.
Consider `CO[C@H]1C[C@@H]2CC[C@@H](C)[C@@](O)(O2)C(=O)C(=O)N2CCCC[C@H]2C(=O)O[C@H]([C@H](C)C[C@@H]2CC[C@@H](O)[C@H](OC)C2)CC(=O)[C@H](C)/C=C(\C)[C@@H](O)[C@@H](OC)C(=O)[C@H](C)C[C@H](C)/C=C/C=C/C=C/1C` [RAPAMYCIN, rapamycin, reference compound], for which the IC50 came to 39.1 µM in experiment [6] (setting [31]); 22.8 µM in experiment [6] (setting [32]); 17.5 µM in experiment [6] (setting [33]); 15.7 µM in [8] (setting [34]); 31.8 µM in experiment [8] (setting [35]); 17.8 µM in [8] (setting [36]).
As for `COc1cccc2c1C(=O)c1c(O)c3c(c(O)c1C2=O)C[C@@](O)(C(=O)CO)C[C@@H]3O[C@H]1C[C@H](N)[C@H](O)[C@H](C)O1` [DOX, doxorubicin, reference compound], the “Selectivity Index (SI)” value in [1] (setting [12]) was 3.0; in experiment [1] (setting [13]), 0.2; in experiment [3] (setting [14]) it was 5.2; in [3] (setting [15]) it was 0.3; in experiment [4] (setting [16]), 1.4; in experiment [4] (setting [17]), 0.1. The “Selectivity Index (SI)” value was found to be 7.8 in experiment [5] (setting [18]); 0.5 in [5] (setting [19]); 4.3 in [6] (setting [21]); 0.3 in [6] (setting [22]); 2.0 in experiment [7] (setting [23]); 0.1 in experiment [7] (setting [24]). The “Selectivity Index (SI)” value in [8] (setting [26]) is 0.6; in experiment [8] (setting [27]) it was 0.04; in experiment [9] (setting [28]) it was 13.0; in [9] (setting [29]), 0.9. In addition, the IC50 was 0.26 µM in [1]; 0.78 µM in experiment [2]; 0.15 µM in experiment [3]; 0.56 µM in [4]; 0.1 µM in experiment [5]; 0.79 µM in experiment [6] (SK-MEL-147, 24 h, SK-MEL-147, 24h treatment, MTT). In addition, the IC50 in experiment [6] (SK-MEL-147, 48 h, SK-MEL-147, 48h treatment, MTT) was determined as 0.48 µM; in [6] (setting [20]), 0.18 µM; in experiment [6] (setting [31]), 2.48 µM; in experiment [6] (setting [32]), 1.88 µM; in experiment [6] (setting [33]), 0.8 µM; in experiment [7] it was 0.39 µM. Moreover, the IC50 came to 1.39 µM in experiment [8] (SK-MEL-28, 24 h, SK-MEL-28, 24h treatment, MTT); 2.11 µM in experiment [8] (SK-MEL-28, 48 h, SK-MEL-28, 48h treatment, MTT); 1.22 µM in [8] (setting [25]); 0.33 µM in experiment [8] (setting [34]); 1.15 µM in experiment [8] (setting [35]); 0.59 µM in experiment [8] (setting [36]). Moreover, the IC50 in experiment [9] was 0.06 µM; in [11], 0.05 µM.

The values are drawn from publication PMC8658889, “Seriniquinones as Therapeutic Leads for Treatment of BRAF and NRAS Mutant Melanomas” (Molecules, 2021).
